Literature values as cited in patent US11878081B1, “Pharmaceutical formulations of tafamidis” (TaP Pharmaceuticals, AG, priority 2022, dated 2024).
Read-outs that look alike come from different tables or passages of the source.

Experiments:
[1] = as stated by the '116 publication
[2] = capsule formulation of Table B/C, 61 mg, pH 6.8 PBS 900 ml, paddle 50 RPM, 37° C.
[3] = 20 mg in 3.0 mL, equilibration 1 h, UHPLC

| stability [1] | solubility [1] | stability ([1]; listed as tafamidis form 1) | Cumulative drug release ([2]; 0 min) [%] | Cumulative drug release ([2]; 5 min) [%] | Cumulative drug release ([2]; 10 min) [%] | Cumulative drug release ([2]; 15 min) [%] | Cumulative drug release ([2]; 20 min) [%] | Cumulative drug release ([2]; 30 min) [%] | Cumulative drug release ([2]; 45 min) [%] | Cumulative drug release ([2]; 60 min) [%] | concentration of tafamidis in saturated solution (solubility) ([3]; FaSSIF) [µg/mL] | concentration of tafamidis in saturated solution (solubility) ([3]; FeSSIF) [µg/mL] | concentration of tafamidis in saturated solution (solubility) ([3]; SGF) [µg/mL] | SMILES |
| --- | --- | --- | --- | --- | --- | --- | --- | --- | --- | --- | --- | --- | --- | --- |
| unstable | – | – | – | – | – | – | – | – | – | – | – | – | – | O=C(O)c1ccc2nc(-c3cc(Cl)cc(Cl)c3)oc2c1 [form 4, 2-(3,5-dichlorophenyl)-1,3-benzoxazole-6-carboxylic acid] |
| – | low solubility | more stable than forms 2, 4, and 6 | 0.0 | 14.0 | 27.3 | 29.1 | 28.1 | 27.6 | 26.8 | 21.8 | 9.0 | 0.6 | 1.5 | O=C(O)c1ccc2nc(-c3cc(Cl)cc(Cl)c3)oc2c1 [‘441 patent's tafamidis crystal form 1, 2-(3,5-dichlorophenyl)-1,3-benzoxazole-6-carboxylic acid] |
